Target: HIF Prolyl hydroxylases 2 (PHD2) (Homo sapiens (Human), UniProt Q9GZT9)
Assay: Inhibitory effect on PHD2 by fluorescence polarization (HIF-1α / VBC complex interaction)
Type: biochemical
Details: PHD2 0.5 μg/μl, FAM-HIF (556-575) 1 μM, FP readout with GST-VBC complex
Experimental: Biological Example 2: Detection of Inhibitory Effect of the Compounds on PHD2 (IC50)
The interaction between hypoxia-inducible factor HIF-1α and VBC complex (von Hippel-Lindau protein-Elongin B-Elongin C, VBC) was detected by Fluorescence polarization (FP) method, to measure the enzyme inhibitory activity of the HIF Prolyl hydroxylases 2 (PHD2) inhibitor compounds.
To a NETN (20 mM Tris.HCl, 100 mM NaCl, 1 mM EDTA, 0.5% NP-40, 1 mM PMSF) buffer containing 200 μM ascorbic acid, 20 μM α-ketoglutaric acid, 100 μM FeCl2 was added FAM-HIF (556-575) at a final concentration of 1 μM in the dark. Subsequently, the desired concentration of the test compound or the positive compound was added (the compound was replaced by the buffer in the negative control and the positive control). Finally, PHD2 was added at a final concentration of 0.5 μg/μl (PHD2 was replaced by the buffer in the negative control). They were mixed well and allowed to stand at room temperature for 30 minutes in the dark followed by 95° C. water bath for 1 minute, and then the reaction was terminated. After the temperature drops to room temperature, the sample was prepared well for use. EBC buffer (50 mM Tris.HCl, 120 mM NaCl, 0.5% NP-40) was added to the corresponding wells of a black 96-well test plate. A GST-VBC complex was added to the corresponding test wells at a final concentration of 300 nM (using the wells containing only EBC buffer as blank wells). Subsequently, the corresponding PHD2 prolyl hydroxylation reaction sample was added in the dark as a substrate with a final concentration of 100 nM. After mixing well, the lateral and longitudinal fluorescence intensity values were measured using a full-wavelength multifunctional microplate reader (TECAN infinite M1000) at an excitation wavelength of […] and an emission wavelength of 518 nm.
The fluorescence polarization (mP) was calculated: mP=1000×(lateral value−G factor×longitudinal value)/(lateral value+G factor×longitudinal value)
wherein, lateral value=lateral fluorescence intensity value of test well−lateral fluorescence intensity value of blank well, • longitudinal value=longitudinal fluorescence intensity value of test well−longitudinal fluorescence intensity value of blank well,
PHD2 inhibition rate (%) of the test compound was calculated according to the following formula: Inhibition rate (%)=1−(mP test well−mP negative control well)/(mP positive control well−mP negative control well).
The IC50 was calculated using the non-linear regression data analysis method of Graphpad Prism 4.0 software ([…]).

HIF Prolyl hydroxylases 2 (PHD2), sequence (Q9GZT9 whole entry, species assumed): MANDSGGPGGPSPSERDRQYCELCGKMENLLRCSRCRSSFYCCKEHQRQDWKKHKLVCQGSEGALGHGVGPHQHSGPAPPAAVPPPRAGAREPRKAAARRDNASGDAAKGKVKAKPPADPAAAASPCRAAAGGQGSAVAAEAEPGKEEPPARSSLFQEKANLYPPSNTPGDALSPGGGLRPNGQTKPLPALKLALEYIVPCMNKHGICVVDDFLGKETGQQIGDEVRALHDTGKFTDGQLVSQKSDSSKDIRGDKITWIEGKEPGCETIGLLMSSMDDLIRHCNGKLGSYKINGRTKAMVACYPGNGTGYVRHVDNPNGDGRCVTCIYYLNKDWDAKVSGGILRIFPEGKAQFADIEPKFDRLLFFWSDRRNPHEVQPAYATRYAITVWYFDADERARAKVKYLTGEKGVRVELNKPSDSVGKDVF

`O=C(O)CNC(=O)c1ncc(Oc2ccccc2)cc1O` [Compound 1, 2-(3-hydroxy-5-phenoxy-2-pyridylformamido) acetic acid] was tested. Which IC50 did it give?
Its IC50 is 84 µM.

`Cc1cccc(Oc2cnc(C(=O)NCC(=O)O)c(O)c2)c1C` [Compound 5, 2-(5-(2,3-dimethylphenoxy)-3-hydroxypyridine-2-formamido) acetic acid] was tested. Which IC50 did it give?
The IC50 was 237 µM.

With `O=C(O)CNC(=O)c1ncc(Oc2ccc3ccccc3c2)cc1O` [Compound 8, 2-(3-hydroxy-5-(naphthalen-2-oxo)pyridine-2-formamido) acetic acid] as the molecule, how does the IC50 read?
Its IC50 is 91 µM.

`O=C(O)CNC(=O)c1ncc(Oc2cccc(F)c2F)cc1O` [Compound 9, 2-(5-(2,3-difluorophenoxy)-3-hydroxypyridine-2-formamido) acetic acid] was tested. Which IC50 did it give?
Its IC50 is 15 µM.

How did the IC50 turn out when `Cc1ccc(Oc2cnc(C(=O)NCC(=O)O)c(O)c2)c(C)c1` [Compound 19, 2-(5-(2,4-dimethylphenoxy)-3-hydroxypyridine-2-formamido) acetic acid] was run?
Its IC50 is 63 µM.

Which IC50 does the source give for `O=C(O)CNC(=O)c1ncc(Oc2cccc(Cl)c2)cc1O` [Compound 22, 2-(5-(3-chlorophenoxy)-3-hydroxypyridine-2-formamido) acetic acid] here?
The IC50 was 236 µM.

Reference: US10149841B2, “Compound of 3-hydroxyl pyridine, preparation method thereof and pharmaceutical use thereof” (SHENYANG SUNSHINE PHARMACEUTICAL CO. LTD., priority 2015, dated 2018)
